Measurements published in patent US20220257706A1, “EPIDERMAL GROWTH FACTOR RECEPTOR (EGFR) LIGANDS” (NANYANG TECHNOLOGICAL UNIVERSITY, priority 2019, published 2022).

Experiments:
[1] = test system: HaCaT cells; assay: EdU incorporation assay (DNA synthesis); type: cell-based, human
Protocol: EdU incorporation assay was performed using an EdU proliferative kit (iFluor 488) according to manufacturer's instructions. Briefly, 2.5×10^4 HaCaT cells per well were seeded in a 96-well plate. […] Cells were then fixed, permeabilized, and incubated in a reaction mix containing iFluor 488 for 30 min. The nuclei were stained using DAPI. The plates were visualized using a fluorescence microscope.

[2] = test system: HaCaT cells; assay: Cell migration scratch assay; type: cell-based, human; details: data not shown
Protocol: Cell migration was monitored using the scratch assay. Briefly, HaCaT cells were seeded into 2 well silicone inserts with a defined gap of 500 μm (ibidi, Germany). […] After incubation for 8 h, the wells were photographed using inverted phase-contrast microscope. Images were analyzed for the percentage of cell-free area using the Wimasis image analysis platform.

[3] = test system: C57BL/6 mice; assay: Full-thickness splinted excisional wound healing in C57BL/6 mice; type: in vivo, mouse; details: topical, three consecutive days; bleogen pB1 10 nmol/wound, EGF 1 nmol/wound; vs saline
Protocol: C57BL/6 mice were obtained from Vital Rital Laboratories (Beijing, China). […] All experiments were approved and performed in accordance with the institutional guidelines of the Experimental Animal Center of the Chinese Academy of Medical Science (Beijing, China).
(§1) Full-thickness 5-mm splinted excisional wounding of mice was performed. Briefly, mice were anesthetized using an intraperitoneal injection of sodium pentobarbital (50 mg kg^−1). The hair of the back was shaved with an electric clipper followed by a depilatory cream. Using a 5-mm-diameter sterile biopsy punch, symmetrical full-thickness excisional wounds were created. Splints were placed around the wound using adhesive glue and secured with four interrupted sutures. The wounds and splints were covered with Tegaderm (3M, US). At indicated days within the 14 days post-injury course, wound diameters were measured. The size of wound was calculated from the average of two diameter measurements along the x and y axis.
Full-thickness 5 mm splinted excisional wounding of mice was performed on C57BL/6 mice as described above.

[4] = test system: STZ-induced diabetic C57BL/6 mice; assay: Full-thickness splinted excisional wound healing in streptozotocin-induced diabetic C57BL/6 mice; type: in vivo, mouse; details: 1 nmol/wound topical, five consecutive days
Protocol: as §1
Diabetes was induced into C57BL/6 mice by two intraperitoneal injection (80 mg/kg) of STZ at day 1 and 5. Starting from day 8, blood glucose was monitored regularly for two weeks. […] Blood glucose was also monitored at day 14 post-injury to ensure the mice are diabetic.

[5] = test system: MEK1/2; assay: Western blot of phosphorylated MEK1/2 in HaCaT cells; type: cell-based, human; details: 5 μM
Protocol: (§2) Blot transfer was performed onto a PVDF membrane (GE healthcare, Sweden) at 250 mA for 120 min on ice. The blot was blocked with 5% BSA TBST before incubating overnight at 4° C. with anti-P-MEK1/2 rabbit antibody (1:2000 in 5% BSA TBST; Cell Signaling, US), anti-MEK1/2 rabbit antibody (1:2000 in 5% BSA TBST; Cell Signaling, US), anti-P-ERK1/2 rabbit antibody (1:2000 in 5% BSA TBST; Cell Signaling, US), anti-ERK1/2 rabbit antibody (1:2000 in 5% BSA TBST; Cell Signaling, US), and anti-β-actin mouse antibody (1:10000 in 5% BSA TBST; Merck Millipore, US). After incubation, the membrane was washed with TBST at room temperature three times for 10 min each. The blot was then incubated with secondary anti-mouse or anti-rabbit horseradish peroxidase (HRP) (1:5000 in 5% BSA TBST; Cell Signaling, US) and was incubated for another 1 h at room temperature. The blot was washed five times 10 min each with TBST at room temperature before addition of chemiluminescence substrate (Advansta, US) and exposure on X-ray film (Fujifilm, Japan).

[6] = test system: ERK1/2; assay: Western blot of phosphorylated ERK1/2 in HaCaT cells; type: cell-based, human; details: 5 μM
Protocol: as §2

[7] = test system: c-fos; assay: Gene expression analysis (qPCR) of c-fos in HaCaT cells; type: cell-based, human; details: 2 h treatment
Protocol: Total RNA was extracted from HaCaT and primary human keratinocytes using PureLink™ RNA mini kit (Thermo Fisher Scientific, US). First-strand cDNA was synthesised from 600 ng of total RNA using SuperScript™ II Reverse Transcriptase and Oligo(dT)12-18 (Thermo Fisher Scientific, US) according to the manufacturer's instructions. Quantitative PCR (qPCR) was performed with iTaq Universal SYBR Green Supermix (Bio-Rad, US) on a CFX96 Touch Real-Time PCR Detection System (Bio-Rad, US) for 40 cycles. PCR reaction (20 μL): 3 μL cDNA, 1 μL primer mix (10 μM), 6 μL DEPC-treated water and 10 μL mastermix. […] GAPDH was used as a housekeeping gene for normalization. Fold changes of gene expressions with c-fos and c-Jun were calculated using the 2^−ΔΔCT method.

[8] = Heat stability (100° C., RP-HPLC); type: physicochemical; details: 100° C.; read-out: calculated t1/2, heat treatment
Protocol: Samples were collected at various time points (0, 30, 60, and 120 min).

[9] = biological target: EGFR (Homo sapiens, UniProt P00533); assay: TR-FRET EGFR ligand binding assay (competitive displacement of biotin-EGF); set-up: purchased PerkinElmer
Sequence of EGFR (P00533 25-645 limits assumed): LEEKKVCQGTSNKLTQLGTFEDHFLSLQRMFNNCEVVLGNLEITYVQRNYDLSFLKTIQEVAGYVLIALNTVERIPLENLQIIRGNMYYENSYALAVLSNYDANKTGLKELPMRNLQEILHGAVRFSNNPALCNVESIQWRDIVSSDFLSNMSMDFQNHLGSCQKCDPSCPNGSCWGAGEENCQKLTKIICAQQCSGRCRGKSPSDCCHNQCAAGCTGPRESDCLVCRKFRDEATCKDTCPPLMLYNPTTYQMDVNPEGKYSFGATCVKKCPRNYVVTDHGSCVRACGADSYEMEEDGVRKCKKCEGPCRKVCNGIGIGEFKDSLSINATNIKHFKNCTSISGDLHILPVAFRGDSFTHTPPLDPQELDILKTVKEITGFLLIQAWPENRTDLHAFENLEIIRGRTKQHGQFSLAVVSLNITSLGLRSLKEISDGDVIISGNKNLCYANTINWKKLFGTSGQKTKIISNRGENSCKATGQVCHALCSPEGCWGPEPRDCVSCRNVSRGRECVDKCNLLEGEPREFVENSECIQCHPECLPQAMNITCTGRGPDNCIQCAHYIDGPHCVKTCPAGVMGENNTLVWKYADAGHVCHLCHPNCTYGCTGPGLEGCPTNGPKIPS
Protocol: TR-FRET ratio was measured using a microplate reader in dual emission mode (Excitation: 340 nm, emission: 665 nm and 615 nm) (Cytation 1, US). […] (SEQ ID NO:11) or roseltide rT7 with an amino acid sequence of […] (SEQ ID NO:17) were used as negative control.

[10] = Human serum stability; details: 25% human serum
Protocol: The test samples were incubated at 37° C. Samples were collected at various time points. The collected samples were subjected to protein precipitation with 100% ethanol and centrifugation at 180,000 g for 5 min at 4° C. The supernatant was collected for analysis.
(§3) All collected samples from various stability assays were analyzed by RP-HPLC with a linear gradient of mobile phase A (0.05% TFA/H2O) and mobile phase B (0.05% TFA/ACN) on aeris peptide XB-C18 column (Phenomenex, US). The resulting peaks were collected and identified by MALDI-TOF MS. The results were expressed as percentage of initial concentration using the peak area of the HPLC profile.

[11] = Acid stability (0.2 M HCl, 37° C.)
Protocol: (§4) Samples were collected at various time points.
as §3

[12] = test system: pepsin, trypsin, pronase, human neutrophil elastase; assay: Proteolytic stability against a panel of proteases; details: human
Protocol: as §4, §3

## CC[C@H](C)[C@@H]1NC(=O)[C@H](CCC(=O)O)NC(=O)[C@H]([C@@H](C)O)NC(=O)[C@@H]2CSSC[C@@H]3NC(=O)[C@H](Cc4ccccc4)NC(=O)[C@H](CC(N)=O)NC(=O)[C@H](CO)NC(=O)[C@H](CSSC[C@H](NC(=O)[C@@H](N)CCC(N)=O)C(=O)N[C@@H](CCCCN)C(=O)N4CCC[C@H]4C(=O)N[C@@H](CC(N)=O)C(=O)NCC(=O)N[C@@H](C)C(=O)N[C@@H](CCCCN)C(=O)N2)NC(=O)[C@H](CSSC[C@@H](C(=O)N[C@@H](C)C(=O)N[C@@H](CC(N)=O)C(=O)N[C@@H](CCCNC(=N)N)C(=O)O)NC(=O)[C@H]([C@@H](C)O)NC(=O)CNC(=O)[C@H](CO)NC(=O)[C@H](CCCCN)NC(=O)[C@H](CCC(N)=O)NC(=O)CNC(=O)[C@H](C)NC(=O)[C@H](Cc2ccc(O)cc2)NC(=O)[C@H](CCCNC(=N)N)NC(=O)[C@H](CC(C)C)NC3=O)NC(=O)[C@@H]2CCCN2C(=O)[C@@H]2CCCN2C(=O)[C@H]([C@@H](C)CC)NC(=O)[C@H](CO)NC1=O [bleogen pB1]
[1]
  DNA synthesis of HaCaT cells (EdU incorporation): enhances DNA synthesis
[2]
  HaCaT cell migration: accelerate
[3]
  wound healing, full-thickness excision wound model in C57 mice: accelerated wound healing from day 3 to day 11
[4]
  wound healing rate vs vehicle control in STZ-induced diabetic mice: healed at a significantly faster rate starting from day 4 post-injury
[5]
  phosphorylation of MEK1/2: induces the phosphorylation
[6]
  phosphorylation of ERK1/2: induces the phosphorylation
[7]
  mRNA expression of c-fos: significantly upregulate
[8]
  half-life at 0.1 M: > 8.33 h
[9]
  IC50: 1720 ± 0.075 nM
  potency relative to EGF in receptor displacement (fold less potent): 50-100 fold
[10]
  half-life at 0.1 M: > 800 h
[11]
  half-life at 0.1 M: > 8.33 h
[12]
  half-life at 0.1 M: > 8.33 h
